{"source": "patent US7041821B2", "about": "“Synthetic molecules for labeling histidine-rich proteins” (The Regents of the University of California, priority 2003, dated 2006)", "key": {"his6-CFP": {"system": "his6-CFP", "settings": "+Zn2+ + his6-CFP: 1 μM dye, pH 7.2, 100 μM ZnCl2 and 1 μM his6-CFP", "description": "Excitation (ex), emission (em) maxima (in nm) and fluorescence quantum yields (φ) of 1 μM dye in 100 mM KCl 10 mM MOPS pH 7.2 with 50 μM EDTA (—Zn^2+), 100 μM ZnCl2 (+Zn^2+) or 100 μM ZnCl2 and 1 μM his6-CFP (+Zn^2++his6-CFP)."}, "[1]": {"system": "HEK293 cells expressing a His6-tagged test-protein", "text": "A gene encoding the peptide […] (His6-) was created by the polymerase chain reaction (PCR), using pRSETB template (Invitrogen). BglII and SacII restriction sites were incorporated at the 5′ and 3′ ends of the gene, by using the forward primer […] and reverse primer […]. For expression on the surface of mammalian cells, the gene was inserted into the pDisplay vector (Invitrogen) using the BglII and SacII restriction sites. This vector supplies the necessary sequences for entry into the secretory pathway and anchoring to the outer face of the plasma membrane.\nHEK 293 cells were plated onto sterilized glass cover slips on 2 cm dishes or 10 cm plates and grown to 50–100% confluency in DMEM supplemented with 10% FBS at 37° C. in 6% CO2. Cells were transfected with FUGENE-6 transfection reagent (Roche Molecular Biochemicals). After 24 to 48 h incubation at 37° C. in culture medium, the cells were washed once with Hanks' balanced salt solution buffer (HBSS). Then 2 mL of the staining solution (HEPES buffer with 1 μM free Zn^2+ (pH 7.4), ˜1–1.5 μM of compound (I) (DMSO stock)) was added to the cells. After 1 min, the cells were washed twice with HBSS and imaged. Imaging experiments were performed with excitation at 540 nm (25 nm bandwidth), emission at 595 nm (50 nm bandwidth), and dichroic mirror at 560 nm for the Zn-compound (I); and excitation at 420 nm (20 nm bandwidth), emission at 475 nm (40 nm bandwidth) and dichroic mirror at 450 nm for CFP.\n(§1) A solution of Compound (I) in buffer containing 1 μM Zn^2+ was added extracellularly to intact HEK293 cells expressing a His6-tagged test-protein, targeted to the surface of the cell membrane."}, "poly-histidine peptide": {"system": "poly-histidine peptide", "procedure": "as §1"}, "[2]": {"procedure": "Formation of the Zn-complex can be monitored by absorbance or fluorescence emission and excitation shifts. Aliquots of a dye stock solution in DMSO were added to 500 μL of buffers containing 10 nM, 100 nM, 1 μM or 10 μM free zinc (controlled by Ca^2+/Zn^2+ EGTA and 10 mM HEPES; see Walkup, G. K., Burdette, S. C., Lippard, S. J., and Tsien, R. Y., J. Am. Chem. Soc. 2000, 122, 5644–5645) or zinc free (10 mM HEPES, 1 mM EDTA buffer) solutions to yield approximately 1–1.5 μM dye solution (ε˜65,500 M^−1 cm^−1).", "remark": "listed apart in the source"}, "[3]": {"settings": "+Zn2+: 1 μM dye, pH 7.2, 100 μM ZnCl2"}, "[4]": {"settings": "−Zn2+: 1 μM dye, 100 mM KCl 10 mM MOPS pH 7.2, 50 μM EDTA"}}, "note": "Where two headings read alike, the source gives them in different places.", "data": [{"molecule": "2′,7′-bis(2-dimethylaminoethanesulfonamido)-4′,5′-difluorofluorescein [Compound II]", "values": [{"measurement": "Emission maximum (em)", "setting": "his6-CFP", "value": 560, "unit": "nm"}, {"measurement": "Excitation maximum (ex)", "setting": "his6-CFP", "value": 531, "unit": "nm"}, {"measurement": "Fluorescence quantum yield (φ)", "setting": "his6-CFP", "value": 0.19}, {"measurement": "Emission maximum (em)", "setting": "[3]", "value": 560, "unit": "nm"}, {"measurement": "Excitation maximum (ex)", "setting": "[3]", "value": 523, "unit": "nm"}, {"measurement": "Fluorescence quantum yield (φ)", "setting": "[3]", "value": 0.37}, {"measurement": "Emission maximum (em)", "setting": "[4]", "value": 544, "unit": "nm"}, {"measurement": "Excitation maximum (ex)", "setting": "[4]", "value": 517, "unit": "nm"}, {"measurement": "Fluorescence quantum yield (φ)", "setting": "[4]", "value": 0.47}]}, {"molecule": "2′,7′-bis(2-pyridylsulfonamido)-4′,5′-difluorofluorescein [Compound IV]", "values": [{"measurement": "Emission maximum (em)", "setting": "his6-CFP", "value": 570, "unit": "nm"}, {"measurement": "Excitation maximum (ex)", "setting": "his6-CFP", "value": 545, "unit": "nm"}, {"measurement": "Fluorescence quantum yield (φ)", "setting": "his6-CFP", "value": 0.08}, {"measurement": "Emission maximum (em)", "setting": "[3]", "value": 566, "unit": "nm"}, {"measurement": "Excitation maximum (ex)", "setting": "[3]", "value": 533, "unit": "nm"}, {"measurement": "Fluorescence quantum yield (φ)", "setting": "[3]", "value": 0.35}, {"measurement": "Emission maximum (em)", "setting": "[4]", "value": 547, "unit": "nm"}, {"measurement": "Excitation maximum (ex)", "setting": "[4]", "value": 525, "unit": "nm"}, {"measurement": "Fluorescence quantum yield (φ)", "setting": "[4]", "value": 0.60}]}, {"molecule": "Cc1c(O)c(NS(=O)(=O)c2ccccn2)cc2c1Oc1c(cc(NS(=O)(=O)c3ccccn3)c(O)c1C)C21OC(=O)c2ccccc21", "note": "[Compound I, 2′,7′-Bis(pyridyl-2-sulfonamido)-4′,5′-dimethylfluorescein]", "values": [{"measurement": "Speed of staining", "setting": "[1]; intact HEK293 cells, 1 μM Zn2+", "value": "stains cells virtually instantaneously"}, {"measurement": "Staining of non-transfected cells", "setting": "[1]; neighboring non-transfected HEK293 cells, same staining", "value": "no staining"}, {"measurement": "Reversibility of staining", "setting": "[1]; washing with EDTA solutions (FIG. 7)", "value": "staining is reversible by washing with EDTA solutions"}, {"measurement": "Staining of transfected cells", "setting": "[1]; ~1–1.5 μM compound, 1 μM free Zn2+, added extracellularly, 1 min, washed", "value": "transfected cells clearly showed membrane specific fluorescent staining"}, {"measurement": "Fluorescence anisotropy binding", "setting": "poly-histidine peptide", "value": "clearly indicate binding to a poly-histidine peptide"}, {"measurement": "Extinction coefficient ε", "setting": "[2]; dye solution in HEPES buffers", "value": "~65,500 M^−1 cm^−1"}, {"measurement": "Fluorescence quantum yield", "setting": "[2]; virtually unchanged between 0 and 1 μM free Zn2+ (FIG. 2)", "value": "~0.4"}, {"measurement": "Emission maximum (em)", "setting": "his6-CFP", "value": 560, "unit": "nm"}, {"measurement": "Excitation maximum (ex)", "setting": "his6-CFP", "value": 536, "unit": "nm"}, {"measurement": "Fluorescence quantum yield (φ)", "setting": "his6-CFP", "value": 0.09}, {"measurement": "Emission maximum (em)", "setting": "[3]", "value": 557, "unit": "nm"}, {"measurement": "Excitation maximum (ex)", "setting": "[3]", "value": 523, "unit": "nm"}, {"measurement": "Fluorescence quantum yield (φ)", "setting": "[3]", "value": 0.34}, {"measurement": "Emission maximum (em)", "setting": "[4]", "value": 545, "unit": "nm"}, {"measurement": "Excitation maximum (ex)", "setting": "[4]", "value": 518, "unit": "nm"}, {"measurement": "Fluorescence quantum yield (φ)", "setting": "[4]", "value": 0.40}]}]}
